{"source": "patent US20080234244A1", "about": "“CU[…] AND USES THEREOF” (priority 2007, published 2008)", "key": {"[1]": {"tested_on": "Ras-GTP activation in K562 cells", "assay": "GTPase pull-down assay (GST-Raf1-RBD), Ras-GTP content", "type": "cell-based, human", "conditions": "50 μM, 2 minutes to 4 hours", "protocol": "Lysate with 500 μg protein were used to determined the Ras-GTP content by the Glutathione S-transferase (GST)-RBD (Ras-binding domain of Raf) pull down assay. The treated and control cells were lysed in lysis buffer (25 mMTris-HCl, pH7.5, 150 mM NaCl, 5 mMMgCl2, 1% NP-40, 1 mM DTT and 5% glycerol) for 5 minutes at 4° C. Soluble cell lysates were obtained by centrifuged at 17000 g for 5 minutes. 500 μg cell lysate were collected and incubated with 80 μg GST-Raf1-RBD in 50 mM Tris-HCl, pH7.2, 150 mMNaCl, 0.5% Triton X-100, 5 mMMgCl2, 1 mMDTT and 10% glycerol for 1 hour at 4° C. The beads were washed with lysis buffer for 3 times and then resuspended and boiled in 2× sample buffer at 100° C. for 5 minutes. 25 μl supernatants were collected by centrifuged at 7200 g for 2 minutes and then resolved in 15% SDS-PAGE followed by western blot analysis using anti-Ras antibody.\nIn order to further investigate if cucurbitacin B block the Stat3 activation is truly through Erk pathway in K562 cells, the ability of cucurbitacin B to inhibit the Ras/Raf/Mek/Erk pathway was determined by measuring Ras-GTP, phosphorylation of c-Raf, Mek1/2, Erk1/2 and Elk-1 in K562 cells. The cells were incubated with 50 μM cucurbitacin B for the indicated time intervals (2 minutes, 5 minutes, 10 minutes, 30 minutes, 1 hour and 4 hours). […]"}, "[2]": {"tested_on": "Elk-1 activation in K562 cells", "assay": "Phosphorylation of Elk-1", "type": "cell-based, human", "conditions": "50 μM, 5 minutes treatment", "protocol": "In order to further investigate if cucurbitacin B block the Stat3 activation is truly through Erk pathway in K562 cells, the ability of cucurbitacin B to inhibit the Ras/Raf/Mek/Erk pathway was determined by measuring Ras-GTP, phosphorylation of c-Raf, Mek1/2, Erk1/2 and Elk-1 in K562 cells. The cells were incubated with 50 μM cucurbitacin B for the indicated time intervals (2 minutes, 5 minutes, 10 minutes, 30 minutes, 1 hour and 4 hours). 15 μg cell lysates were subjected to western blot analysis for phosphorylation and total c-Raf, Mek1/2, Erk1/2."}, "[3]": {"tested_on": "Erk1/2 activation in K562 cells", "assay": "Western blot of phosphorylated and total Erk1/2", "type": "cell-based, human", "conditions": "50 μM, 5 minutes treatment", "protocol": "(§1) K562 leukemia cells were serum starved for 18 hours prior to cucurbitacin B treatment. The cells were incubated at a 75-mm culture flask filled with 10 ml growth medium (RPMI with 10% FBS and 1% PS) at the cell density of 1×10^5 cells/ml in the presence or absence of cucurbitacin B for various time intervals. The drug treatment were terminated by centrifugation at 1500 rpm for 5 minutes and the cells were rinsed twice with phosphate-buffered saline and lysed at 4° C. in a lysis buffer containing 50 mM Tris-HCl, pH7.5, […], 5 mM EDTA, 40 mM NaP2O7, 1% Triton X-100, 1 mM dithiothreitol, […], 100 μM phenylmethylsulfonyl fluoride, 2 μg/ml leupeptin, 4 μg/ml aprotinin and 0.7 μg/ml pepstatin. The insoluble protein lysate were removed by centrifugation for 10 minutes at 13000 rpm. Fifteen micrograms of protein lysate was resolved using SDS-polyacryamide gel electrophoresis (PAGE) (usually 8%-12% polyacrylamide gel) and then subjected to western blot analysis. Western blots were performed with antibodies specific for phosphorylated and total Stat3, c-Raf, Mek, and Erk. […]\n(§2) In order to further investigate if cucurbitacin B block the Stat3 activation is truly through Erk pathway in K562 cells, the ability of cucurbitacin B to inhibit the Ras/Raf/Mek/Erk pathway was determined by measuring Ras-GTP, phosphorylation of c-Raf, Mek1/2, Erk1/2 and Elk-1 in K562 cells. […]"}, "K562 cells [4]": {"tested_on": "K562 cells", "assay": "Flow cytometry for cell cycle analysis (PI)", "type": "cell-based, human", "conditions": "80 nM, 48 hours, K562, serum starved 24 hours", "protocol": "K562 cells were serum starved for 24 hours prior to cucurbitacin B treatment. After 48 hours of treatment, the cells were collected and rinsed twice with phosphate-buffer saline and fixed with 80% ice-cold ethanol for 1 hour at 4° C. overnight.\nThen, the cells were stained with propidium iodine at 1 mg/ml for 15 minutes at room temperature. The stained cells were analyzed by flow cytometry (FACS Calibur BD Flow Cytometer)\nAppropriate numbers of cell density were serum starved for 24 hours prior to treatment with different doses of cucurbitacin B for 2 days. The cell cycle analysis profile of K562 cells after cucurbitacin B treatment were detected using Flow Cytometry analysis after fixed with 80% ice-cold ethanol at 4° C. and then stained with PI for 15 minutes."}, "[5]": {"tested_on": "Human leukemia cell lines CCRF-CEM, K562, MOLT-4, RPMI-8226 and SR", "assay": "Cell proliferation assay using SRB, 5 human leukemia cell lines", "type": "cell-based", "conditions": "48 hours treatment, range over the 5 cell lines, read-out: GI50 (growth inhibition), all leukemia cell lines", "protocol": "(§3) Human leukemia cell lines CCRF-CEM, K562, MOLT-4, RPMI-8226 and SR, purchased from the National Cancer Institute (NCI), were cultured in RPMI 1640 medium supplemented with 5% (v/v) fetal […] and 100 units/ml penicillin and 100 units/ml streptomycin in a humidified 5% CO2 atmosphere at 37° C.\n(§4) All 5 human leukemia cells were screened by the cell proliferation assay using SRB to quantitative cell protein mass following cucurbitacin B treatment. The experiments were repeated in triplicate. Appropriate number of cells (depends on the doubling time of cells) were seeded into a 96-well tissue culture plate and growth in the indicated medium in presence of different dosages of cucurbitacin B for 2 days. Afterwards 25 μl 80% TCA reagent was added into each well to fix the cells and the plates were incubated at 4° C. at least for 1 hour. Then the plates were washed with tap water and air dried. […] The plates were air dried and dissolved by 100 μl 10 mM Trizma-base solution and the absorbance was measured at 515 nm using FLUOstar OPTIMA equipment.\n(§5) Appropriate number of cell density were seeded into a 96 well culture plate and treated with different doses of cucurbitacin B for 2 days. The growth inhibition effects of cucurbitacin B on the cells were detected using SRB."}, "[6]": {"tested_on": "c-Raf activation in K562 cells", "assay": "Western blot of phosphorylated and total c-Raf", "type": "cell-based, human", "conditions": "50 μM, 5 minutes treatment", "protocol": "as §1, §2"}, "[7]": {"tested_on": "Raf/Mek/Erk pathway in K562 cells", "assay": "Western blot, Raf/Mek/Erk pathway as a whole", "type": "cell-based, human", "conditions": "50 μM, after 4 hours of treatment", "protocol": "as §1, §2"}, "K562": {"tested_on": "K562", "assay": "Cell proliferation assay using SRB, K562", "type": "cell-based", "conditions": "Homo sapiens, K562, 48 hours treatment, read-out: GI50 (growth inhibition)", "protocol": "as §3, §4, §5"}, "[8]": {"tested_on": "Stat3 activation in K562 cells", "assay": "Western blot of phosphorylated and total Stat3", "type": "cell-based, human", "conditions": "50 μM", "protocol": "K562 leukemia cells were serum starved for 18 hours prior to cucurbitacin B treatment. The cells were incubated at a 75-mm culture flask filled with 10 ml growth medium (RPMI with 10% FBS and 1% PS) at the cell density of 1×10^5 cells/ml in the presence or absence of cucurbitacin B for various time intervals. The drug treatment were terminated by centrifugation at 1500 rpm for 5 minutes and the cells were rinsed twice with phosphate-buffered saline and lysed at 4° C. in a lysis buffer containing 50 mM Tris-HCl, pH7.5, […], 5 mM EDTA, 40 mM NaP2O7, 1% Triton X-100, 1 mM dithiothreitol, […], 100 μM phenylmethylsulfonyl fluoride, 2 μg/ml leupeptin, 4 μg/ml aprotinin and 0.7 μg/ml pepstatin. The insoluble protein lysate were removed by centrifugation for 10 minutes at 13000 rpm. Fifteen micrograms of protein lysate was resolved using SDS-polyacryamide gel electrophoresis (PAGE) (usually 8%-12% polyacrylamide gel) and then subjected to western blot analysis. Western blots were performed with antibodies specific for phosphorylated and total Stat3, c-Raf, Mek, and Erk. The blots were developed with the Enhanced Chemiluminescence Plus (ECL Plus) detection system (Amersham).\n15 μg cell lysate of each sample was separated in 8% SDS-PAGE followed by immuno-blotting with anti-Stat3 antibodies to detect the phosphorylated form of Stat3 as well as its total expression level.\nCells were serum starved for 18 hours followed by treated with 50 μM cucurbitacin B for 10 minutes, 30 minutes, 1 hour and 4 hours, respectively. 15 μg cell lysate of each sample was separated in 8% SDS-PAGE followed by immuno-blotting with anti-Stat3 antibodies to detect the phosphorylated form of Stat3 as well as its total expression level."}, "[9]": {"tested_on": "Mek1/2 activation in K562 cells", "assay": "Western blot of phosphorylated and total Mek1/2", "type": "cell-based, human", "conditions": "50 μM, 5 minutes treatment", "protocol": "as §1, §2"}, "K562 cells [10]": {"tested_on": "K562 cells", "assay": "Cell morphology by microscopy (Leica DMIL, 400x)", "type": "cell-based, human", "conditions": "48 hours", "protocol": "(§6) 10^5/ml K562 cells were treated with cucurbitacin B in the presence of complete medium containing 10% FBS for 48 hours. The changes in cell morphology were visualized using Leica DMIL (Leica Microsystem). Cells were harvested and rinsed twice with ice-cold PBS (pH7.4) and a total 2.5×10^5 K562 cells were stained with 10 μl Annexin V and 10 μl propidium iodide in 100 μl 1× binding buffer for 15 minutes in dark and then subjected to apoptosis analysis with FACSCalibar Flow cytometer system (FACS Calibur BD Flow Cytometer).\nAfter 48 hours of cucurbitacin B treatment, the cells were viewed using a Leica DMIL microscope at 400× magnification. […] However, the treated cells lost the rounded shape and shrank in size at the highest dose of cucurbitacin B used (80 nM)."}, "K562 cells [11]": {"tested_on": "K562 cells", "assay": "Flow cytometry for apoptosis analysis (Annexin V / PI)", "type": "cell-based, human", "conditions": "80 nM, 48 hours, K562, Anx.V/PI", "protocol": "as §6\nAppropriate number of cell density were seeded into T-25 culture flask and treated with different doses of cucurbitacin B for 2 days. The apoptotic effects of cucurbitacin B on the cells were detected using Flow Cytometry analysis after stained with Anx.V and PI for 15 minutes. […] Cucuribitacin B induced apoptosis in a dose dependent manner, among them, 80 nM induced the highest apoptotic effect in K562 cells, with over 50% cells in apoptotic population and 10% cells in the necrotic population (late apoptotic and necrotic phase). The effect of cucurbitacin B on apoptosis and cell cycle profile in K562 cells were analyzed using flow cytometry, as depicted in FIG. 3."}}}
{"smiles": "CC(=O)OC(C)(C)/C=C/C(=O)[C@](C)(O)C1[C@H](O)C[C@@]2(C)C3CC=C4C(C[C@H](O)C(=O)C4(C)C)[C@]3(C)C(=O)C[C@]12C", "note": "(some centres unmarked) [cucurbitacin B]", "values": [{"measurement": "change of Ras-GTP activation", "setting": "[1]", "result": "no significant change"}, {"measurement": "inhibition of activation of Elk-1", "setting": "[2]", "result": "significantly inhibited"}, {"measurement": "inhibition of activation of Erk1/2", "setting": "[3]", "result": "significantly inhibited"}, {"measurement": "percentage of cells in the G2/M phase", "setting": "K562 cells [4]", "result": 70, "unit": "%"}, {"measurement": "GI50", "setting": "[5]", "result": "15.6 to 35.3", "unit": "nM"}, {"measurement": "inhibition of activation of c-Raf", "setting": "[6]", "result": "significantly inhibited"}, {"measurement": "inhibition of the Raf/Mek/Erk pathway", "setting": "[7]", "result": "Complete inhibition"}, {"measurement": "GI50", "setting": "K562", "result": 15.6, "unit": "nM"}, {"measurement": "time of peak inhibition of Stat3 activation", "setting": "[8]", "result": 4, "unit": "h"}, {"measurement": "inhibition of Stat3 activation, time course", "setting": "[8]; 10 minutes to 30 minutes", "result": "No significant change"}, {"measurement": "inhibition of Stat3 activation, time course", "setting": "[8]; 1 hour treatment", "result": "inhibited Stat3 activation"}, {"measurement": "inhibition of Stat3 activation (phospho-Stat3)", "setting": "[8]; 4 hours, only the highest of 1, 5, 50 μM", "result": "significant inhibited"}, {"measurement": "inhibition of activation of Mek1/2", "setting": "[9]", "result": "significantly inhibited"}, {"measurement": "change in cell morphology", "setting": "K562 cells [10]; 20 nM and 40 nM", "result": "increase in cell size"}, {"measurement": "change in cell morphology", "setting": "K562 cells [10]; 80 nM", "result": "shrinkage of cell size"}, {"measurement": "cells in apoptotic population", "setting": "K562 cells [11]", "result": "over 50%"}, {"measurement": "cells in the necrotic population (late apoptotic and necrotic phase)", "setting": "K562 cells [11]", "result": 10, "unit": "%"}]}
